90 compounds from a melting point compilation (Tetko et al.; mined from patent text by program, amines drawn as free bases though some values may be those of a salt) can be followed below.

`COC(=O)C(N)Cc1ccc(OCc2nc3ccc(OC)cc3n2C)cc1` (stereo not given) yielded a melting point of 108 to 111 °C.
Then `CC=CCn1c(C)c(CCCCC)c2cnnc(OCc3ccc(F)cc3)c21`, with 65 to 69 °C; and `COc1ccc(-c2nnc3c4ccccc4c(N(C)CCCCl)nn23)cc1`, with 113 to 115 °C; and `Cc1nc2nc[nH]c2c2nc(-c3ccccc3)nn12`, with 285 °C.
In turn, `OCC(CO)Oc1ccc(Cl)cc1` gave a melting point of 62 to 64 °C.
`N#Cc1ccc2c(c1)Sc1ccccc1C=C2` yielded a melting point of 108 to 110 °C.
Compound `Oc1c(CCc2ccccc2)cnc2c(-c3cc(-c4ccccc4)cs3)cnn12` gave a melting point of 278 to 285 °C.
Compound `ClCc1ccccc1-c1ccccc1-c1ccccc1CCl` came in with a melting point of 189 to 190 °C.
`COc1cc(C)c(CCCCCCCCCCCCCCCC(=O)O)c(O)c1OC`: the melting point lay within 45 to 46 °C.
Turning to `CCCCCCS(=O)(=O)c1nn2c(=O)c(C(C)=O)cnc2s1`, the melting point lay within 124 to 125 °C.
`Nc1nc(N2CCC2)c2nc[nH]c2n1` gave a melting point of 280 °C.
The compound `CCn1cc(C(=O)NCc2ccc(Cl)cc2)c(=O)c2cc(CCl)sc21` gave a melting point of 199 to 200 °C.
The compound `CCCCc1nc2c(N)nc3cc(-c4ccc(OC)cc4OC)ccc3c2n1CC(C)C` came in with a melting point of 187 to 189 °C.
With `CCSc1nc2ccc(N)cc2s1`, the melting point fell in the range of 77 to 78 °C.
For the compound `CCOC(=O)COc1cc(S(C)(=O)=O)ccc1C(=O)NCc1ccc(Br)cc1F`, the melting point was in the range of 140 to 143 °C.
The compound `CN(C)S(=O)(=O)c1cc(C(=O)O)cc(NCc2ccccc2)c1Oc1ccccc1` showed a melting point of 205 to 206 °C.
In the case of `NC(Cc1ccc(C(=O)c2ccccc2)cc1)C(=O)O` (racemic), the melting point was 217 °C.
Regarding `CC(C)(C)N1CC(=O)Nc2ccc(C#C[Si](C)(C)C)cc2C1=O`, the melting point lay within 243 to 244 °C.
The compound `Cc1nc(-n2c(=O)ccc3cc(OCc4ccccc4)ccc32)sc1C(=O)NCc1ccccc1` registered a melting point of 213 to 216 °C.
The compound `O=c1ncc(I)cn1COc1ccc(Cl)cc1` came in with a melting point of 216 °C.
With `Cc1ccc(Oc2c([N+](=O)[O-])cc(C(=O)O)cc2S(N)(=O)=O)cc1`, the melting point is 236 °C.
Then `Cc1cc(OCCN2CCOCC2)nn1-c1ccc2c(O)cccc2c1`, with below 70 °C; and `O=Cc1coc2c(c1=O)CCc1ccccc1-2`, with 153 to 156 °C.
`c1ccc2c(C3CCNCC3)n[nH]c2c1` yielded a melting point of 213 to 215 °C.
Then `Nc1ncnc2ncn(COCCCl)c12`, with 184 to 186 °C; and `N#Cc1ccccc1CCc1n[nH]c2c1c(=O)n(-c1ccccc1)c1ncccc21`, with 316 °C; and `Cc1cc(Cl)cc2c1OC(C(F)(F)F)C(C(=O)O)=C2` (stereo not given), with 232 to 233 °C.
Then `COc1cc(C(=O)c2nc(Br)c3ccccn23)ccc1[N+](=O)[O-]`, with 189 °C.
For the compound `COC(=O)NNc1ccc(C)c2c1OC(C)C2` (stereo not given), the melting point fell in the range of 62 to 65 °C.
The compound `Cn1ncc(C(=O)N2CCOCC2)c1C(=O)Nc1ccn2nc(-c3cccnc3F)nc2c1` showed a melting point of 267 to 269 °C.
`CC(C)n1nc(-c2c(NCCO)nc(N)nc2-c2ccccc2)ccc1=O` showed a melting point of 222 to 224 °C.
The result for `CC(C)OC(=O)c1cc(-c2nn(C)c(C(F)(F)F)c2C(F)F)c(F)cc1Cl` reads 57 °C; that for `COc1cc(COc2nn(-c3ccccc3)cc2C(=O)O)ccc1OCc1nc(-c2ccccc2)oc1C`, 209 to 210 °C; that for `CC(C)(C)OC(=O)N[C@H](CNC(=O)Nc1ccccc1)Cc1ccccc1`, 154 °C.
As for `Nc1ccc2c(c1)NC(=O)C2`, the melting point was found to be 194 °C.
As for `CC(C)(C)OC(=O)N1CCC(c2cc(F)c3oc(-c4ccc(S(C)(=O)=O)cc4F)nc3c2)CC1`, the melting point lay in the range of 188 to 192 °C.
The result for `Cc1cc(N2CCN(CCc3ccc(NS(C)(=O)=O)cc3)CC2)ccc1NS(C)(=O)=O` reads 235 to 237 °C.
The compound `COC(F)(F)C(F)(F)C(N)=O` displayed a melting point of 78 to 80 °C.
The result for `O=C(O)c1ccc(Cn2ccn(C3CCc4ccccc4C3)c2=S)cc1` (stereo not given) reads 211 to 212 °C.
On to `CNc1nc(-c2cccc(-c3cncc(OC)c3)c2)c2cc(OC)c(OC)cc2n1`, for which the melting point lay within 225 to 227 °C.
Take `COC(C)CNS(=O)(=O)c1cc(C2(O)CCC(=O)N2C)ccc1Cl` (stereo not given): the melting point lay within 124 to 126 °C.
As to `CC(=O)Nc1ccc(C(=O)Nc2ccc(C(=O)N3CCCCc4ccccc43)cc2)c(Cl)c1`, the melting point lay within 214 to 243 °C.
On to `CN=C1SCC(O)(c2ccc(Cl)c(S(=O)(=O)N(C)C)c2)N1C` (stereo not given), for which the melting point is 157 to 158 °C.
`Oc1c(C(Nc2ccc(C(F)(F)F)cc2)c2ccccn2)ccc2cccnc12` (stereo not given) returned a melting point of 158 to 161 °C.
As for `COC1(c2cncnc2SC)c2ccccc2CC1(C)C` (stereo not given), the melting point lay within 130 to 132 °C.
Consider `CCOC(=O)c1ccc2c(N)cccc2c1`, for which the melting point was in the range of 94 to 95 °C.
The result for `CC#CCNC(=C[N+](=O)[O-])NCCSCc1[nH]cnc1C` reads 148 to 151 °C; that for `CC(=O)Nc1ccc([N+](=O)[O-])c(C)c1C(=O)O`, 190 to 191 °C.
Take `O=C(Nc1ccc(-n2nc(-c3cncc(Br)c3)cc2OC(F)F)cc1)c1ccncc1F`: the melting point lay in the range of 179 to 180 °C.
The result for `CCCCOC(=N)c1sc2ccccc2c1O` reads 185 °C; that for `Cc1cc(Cl)nnc1-c1ccc(C#N)cc1`, 218 to 220 °C; that for `CC(C)(CO)NS(=O)(=O)c1cccc(NC(=O)c2cnn3c(C(F)(F)F)cc(-c4ccc(C(F)(F)F)c(Cl)c4)nc23)c1`, 251 °C.
`O=c1c(Cl)c(OCc2ccc(Cl)cc2)cnn1-c1ccc(Cl)cn1` returned a melting point of 167 to 169 °C.
The result for `CC(=NOCCOc1ccc(C[C@H](Oc2ccc(C)cc2)C(=O)O)cc1)c1ccc(-c2ccccc2)cc1` reads 128 to 130 °C; that for `COc1cc2c(c3c1OC(C)(C)C3)C(c1ccc(=O)n(-c3cc(C)ccn3)c1)=NC(C)(C)C2`, 161 to 162 °C.
On to `COCC1CN(CCOc2ccc(NC(=O)Nc3cc(C(C)(C)C)nn3-c3ccc(C)cc3)c3ccccc23)CCO1` (stereo not given), for which the melting point was in the range of 85 to 90 °C.
In turn, `BrC(Br)=Cc1ccccc1NCc1ccccc1` showed a melting point of 93 to 95 °C.
Then `Cc1cc(CCCCCOc2ccc(C3=NCCO3)cc2C(=O)O)on1`, with 170 to 171 °C; and `COc1ccc2cccnc2c1N`, with 114 to 115 °C.
The result for `COc1ccc2sc(C(=O)Nc3ccc(CC(=O)O)cc3)c(OC(C)C)c2c1` reads 196 °C; that for `CSc1nn2c(N3CCN(Cc4ccccc4)CC3)cc(C)nc2c1S(=O)(=O)c1ccccc1`, 156 to 158 °C.
As for `CCOCc1nc2c(N)nc3ccccc3c2n1CCCCCS(=O)(=O)NCc1ccc(OC)cc1`, the melting point lay in the range of 177 to 178 °C.
For `Nc1scc2c1c(=O)oc1ccc3ccccc3c12`, the melting point was in the range of 221 to 222 °C.
`CN1CCN(c2ccc(Nc3ncc4ccc(-c5ccccc5OCC(=O)OC(C)(C)C)n4n3)cc2)CC1` showed a melting point of 193 to 195 °C.
On to `CN1CCc2cc(O)c(O)c(SCc3ccco3)c2CC1`, for which the melting point was in the range of 162 to 165 °C.
Then `C=CCOC(=O)N=C(OCC)N1Cc2ccccc2-c2ccccc2C1`, with 76 to 77.5 °C; and `CCC(CC)n1nnc2c(Oc3c(C)cc(C)cc3C)nc(C)nc21`, with 92 °C.
With `COc1ccc(-n2nc(CCC(=O)NO)cc2-c2ccc(Cl)cc2)cc1`, the melting point was 154 to 156 °C.
The result for `CCCCCCCCNC(=O)Nc1sc(C(=O)OC(C)CCCCCC)c(C)c1C(=O)OC(C)(C)C` (stereo not given) reads 92 to 94 °C.
For the compound `COc1cccc(C=Cc2ccccc2)c1O`, the melting point fell in the range of 85 to 87 °C.
The result for `CCCCCCNC(=O)Oc1ccc2ncccc2c1` reads 89 °C.
Compound `CCCCN1C(=O)NC(Cc2ccc(C(=O)OC)cc2)C1=O` (stereo not given) yielded a melting point of 144 °C.
In the case of `Cc1ccc(-c2ccc3c(c2)C=C(C(=O)O)CC3)cc1`, the melting point was in the range of 230 to 231 °C.
On to `O=C1Nc2cccc(-c3cccc(NC(=O)c4cccc([N+](=O)[O-])c4)c3)c2/C1=C/c1ccc[nH]1`, for which the melting point is 265 to 266 °C.
The result for `N#Cc1[nH]c2ccccc2c1Cl` reads 150 to 154 °C.
The result for `O=C(N1CCOc2ccccc21)C(F)(F)F` reads 58 to 60 °C; that for `Fc1c2c(nc3cc(Cl)ccc13)CCCC2`, 68 to 70 °C; that for `Oc1cccc(-c2c3ccccc3c(Br)c3sc4ccccc4c23)c1`, 110 to 111 °C.
In turn, `NC(=O)[C@H]1CCC[C@H]1C(=O)O` (relative stereo) came in with a melting point of 132 to 133 °C.
Take `CCCc1[nH]cnc1C=O`: the melting point is 120 to 124 °C.
Compound `Clc1cc(Cl)c2cccc3c2c1N=C3NCCCCCn1ccnc1` came in with a melting point of 191 to 192 °C.
As for `O=S(=O)(c1ccc(Cl)cc1)C(c1ccncc1)C1CCCC1` (stereo not given), the melting point was in the range of 133 to 135 °C.
The result for `CCOC(=O)/C(=N\OC(C)(C)C(=O)OC(C)(C)C)c1nc(C(c2ccccc2)(c2ccccc2)c2ccccc2)sc1N` reads 124 to 125 °C.
Consider `Cn1cnc([N+](=O)[O-])c1Oc1ccccc1`, for which the melting point fell in the range of 116 to 118 °C.
The compound `CCOC(c1ccccc1)(c1ccccc1)c1ncn(S(=O)(=O)N(C)C)c1C` yielded a melting point of 150 °C.
On to `O=C(c1ccn2c1CSC2c1cccnc1)c1c[nH]c2ccccc12` (stereo not given), for which the melting point lay in the range of 237 to 238 °C.
For the compound `CC(C)n1cnc2c(Nc3ccccn3)nc(F)nc21`, the melting point was in the range of 150 to 152 °C.
Then `COc1cc2oc(=O)c(CCN3CCN(c4ccccc4OC)CC3)c(C)c2cc1OC`, with 174 to 175 °C.
For the compound `N#Cc1cnn(-c2c(Cl)cc(C(F)(F)F)c(Cl)c2Cl)c1N`, the melting point lay within 186 to 187 °C.
Compound `Cc1cc(-c2nc3cccnn3c2-c2ccnc(NC(=O)C3CC3)c2)ccc1F` gave a melting point of 217 to 218 °C.

The term melting point denotes the temperature of the solid-liquid transition.
